Reference: patent publication US5948916A, “Arylthiadiazole derivative and antiviral agent containing the same” (priority 1994, dated 1999)
Converted amounts (≈) assume the structure as drawn. Like-named read-outs stand apart in the source and are kept apart here.

Columns and labels:
HIV = test: Virucidal test against HIV (protection of HIV-infected MT-4 cells, MTT method); format: cell-based; conditions: for S.I. (selectivity index, ratio CC50/EC50): CC50/EC50, MT-4 cells; for EC50: Human immunodeficiency virus 1, MT4, 120 h, read-out: EC50 (compound concentration effective to protect 50% of the MT-4 cells from death by HIV)
Description: (§1) Virucidal test aqainst HIV:
(§2) In RPMI1640 culture medium containing 20 mM HEPES buffer solution, 10% bovine fetus serum, and 20 μg/mL gentamycin, 3×10^4 cells of MT-4 (which will be killed by infection with HIV) were infected with HIV at a rate of 0.02 HIV per cell. To the fractions of the culture, predetermined portions of a sample containing the thiadiazole derivative of the compound No. shown in Table 27 and 28 were added, and the culture fractions were incubated at 37° C. After incubation for 5 days, living cells were measured by the MTT method to derive the compound concentration (EC50) which is effective to protects 50% of the MT-4 cells from death by HIV. Separately, the MT-4 cells were incubated in the same manner without infection by HIV, and the compound concentration (CC50) which causes death of 50% of the MT-4 cells. The ratio of CC50 /EC50 is the selectivity index (S.I.).

[1] = Cytotoxicity in MT-4 cells incubated without infection by HIV; format: cell-based; conditions: human; MT-4 cells without infection by HIV, 37° C., 5 days, MTT method; read-out: CC50 (compound concentration which causes death of 50% of the MT-4 cells)
Description: as §1, §2

[2] = MT-4 cells, 0.02 HIV per cell, 37° C., 5 days, MTT method

SMILES	S.I. (selectivity index, ratio CC50/EC50) (HIV)	EC50 (HIV) [µg/mL]	CC50 at 120 h [1] [µg/mL]	EC50 (HIV; [2]) [µg/mL]
CCCN(C)C(=O)Oc1nsnc1-c1c(Cl)ccc(C(N)=O)c1Cl [Compound 93, N-methyl-N-propyl [3-(3-carbamoyl-2,6-dichlorophenyl)-1,2,5-thiadiazol-4-yl] carbamate]	59	1.1 (≈ 2.83 µM)	65 (≈ 167 µM)	
COCCOc1nsnc1-c1c(Cl)cccc1Cl [Compound 159]	5		11 (≈ 36 µM)	2.2 (≈ 7.21 µM)
CCCN(C)C(=O)Oc1nsnc1-c1c(F)ccc(N)c1Cl [Compound 99, N-Methyl-N-propyl [3-(3-amino-2-chloro-6-fluorophenyl)-1,2,5-thiadiazole-4-yl] carbamate]	2750	0.008 (≈ 0.0232 µM)	22 (≈ 63.8 µM)	
CCN(CC)C(C)=Nc1nsnc1-c1c(Cl)cccc1Cl [Compound 131, N^1-diethyl-N^2-[3-(2,6-dichlorophenyl)-1,2,5-thiadiazol-4-yl]acetamidine]	19		5.4 (≈ 15.7 µM)	0.29 (≈ 0.845 µM)
CN(C)S(=O)(=O)Oc1nsnc1-c1c(Cl)cccc1Cl [Compound 138]	9		9.9 (≈ 27.9 µM)	1.1 (≈ 3.11 µM)
O=[N+]([O-])c1ccccc1COc1nsnc1-c1c(Cl)cccc1Cl [Compound 149]	5		8.6 (≈ 22.5 µM)	1.7 (≈ 4.45 µM)
CN(CC#N)C(=O)Oc1nsnc1-c1c(Cl)cccc1Cl [Compound 218, N-(cyanomethyl)-N-methyl [3-(2,6-dichlorophenvl)-1,2,5-thiadiazol-4-yl] carbamate]	168	0.38 (≈ 1.11 µM)	64 (≈ 186 µM)	
Clc1cccc(Cl)c1-c1nsnc1OCc1ccccn1 [Compound 145]	39		2.7 (≈ 7.98 µM)	0.07 (≈ 0.207 µM)
CN(CCO)C(=O)Oc1nsnc1-c1c(Cl)cccc1Cl [Compound 220, N-(2-Hydroxyethyl)-N-methyl [3-(2,6-dichlorophenyl)-1,2,5-thiadiazol-4-yl] carbamate]	18	3.5 (≈ 10.1 µM)	63 (≈ 181 µM)	
Clc1cccc(Cl)c1-c1nsnc1OCc1cccnc1 [Compound 146]	6		1.9 (≈ 5.62 µM)	0.3 (≈ 0.887 µM)
COCCOCOc1nsnc1-c1c(Cl)cccc1Cl [Compound 157]	128		46 (≈ 137 µM)	0.36 (≈ 1.07 µM)
CN(CCC(N)=O)C(=O)Oc1nsnc1-c1c(Cl)cccc1Cl [Compound 223, N-(2-carbamoylethyl)-N-methyl [3-(2,6-dichlorophenyl)-1,2,5-thiadiazol-4-yl] carbamate]	> 38	2.6 (≈ 6.93 µM)	> 100	
CCCN(C)CCOc1nsnc1-c1c(Cl)cccc1Cl [Compound 161, 3-(2,6-dichlorophenyl)-4-[2-(N-methyl-N-propylamino)ethoxy]-1,2,5-thiadiazole]	10		8.3 (≈ 24 µM)	0.8 (≈ 2.31 µM)
CCCN(C)C(=O)Oc1nsnc1-c1c(Cl)ccc(C#N)c1Cl [Compound 87, N-Methyl-N-propyl [3-(2,6-dichloro-3-cyanophenyl)-1,2,5-thiadiazol-4-yl] carbamate]	7667	0.003 (≈ 0.00808 µM)	23 (≈ 62 µM)	
CCCN(C)C(=O)c1nsnc1-c1ccccc1Cl [Compound 195, N-methyl-N-propyl 4-(2-chlorophenyl)-1,2,5-thiadiazole-3-carboxamide]	25		37 (≈ 125 µM)	1.5 (≈ 5.07 µM)
CCCN(C)C(=O)Oc1nsnc1-c1c(Cl)ccc(N)c1Cl [Compound 71, N-Methyl-N-propyl [3-(3-amino-2,6-dichlorophenyl)-1,2,5-thiadiazol-4-yl] carbamate]	2350	0.002 (≈ 0.00554 µM)	4.7 (≈ 13 µM)	
COCOc1nsnc1-c1c(Cl)cccc1Cl [Compound 156]	24		43 (≈ 148 µM)	1.8 (≈ 6.18 µM)
CN(CCCC(=O)O)C(=O)Oc1nsnc1-c1c(Cl)cccc1Cl [Compound 222, N-(3-carboxypropyl)-N-methyl [3-(2,6-dichlorophenyl)-1,2,5-thiadiazol-4-yl] carbamate]	> 71	1.4 (≈ 3.59 µM)	> 100	
CN(C)C=Nc1nsnc1-c1c(Cl)cccc1Cl [Compound 127, N^1 -Dimethyl-N^2-[3-(2,6-dichlorophenyl)-1,2,5-thiadiazol-4-yl] formamidine]	21		31 (≈ 103 µM)	1.5 (≈ 4.98 µM)
CCCN(C)C(=O)Oc1nsnc1-c1cc(N)ccc1Cl [Compound 22, N-Methyl-N-propyl [3-(5-amino-2-chlorophenyl)-1,2,5-thiadiazol-4-yl] carbamate]	1048	0.021 (≈ 0.0643 µM)	22 (≈ 67.3 µM)	
CSCOc1nsnc1-c1c(Cl)cccc1Cl [Compound 155]	> 270		> 100	0.37 (≈ 1.2 µM)
CCN(C=Nc1nsnc1-c1c(Cl)cccc1Cl)CC [Compound 130, N^1-diethyl-N^2 - [3-(2,6-dichlorophenyl)-1,2,5-thiadiazol-4-yl]formamidine]	1000		14 (≈ 42.5 µM)	0.014 (≈ 0.0425 µM)
CCOC(=O)CCN(C)C(=O)Oc1nsnc1-c1c(Cl)cccc1Cl [Compound 224, N-[2-(ethoxycarbonyl)ethyl]-N-methyl [3-(2,6-dichlorophenyl)-1,2,5-thiadiazol-4-yl] carbamate]	385	0.13 (≈ 0.322 µM)	50 (≈ 124 µM)	
CN(C)C(=O)Oc1nsnc1-c1c(Cl)ccc(N)c1Cl [Compound 70, N,N-dimethyl [3-(3-amino-2,6-dichlorophenyl)-1,2,5-thiadiazol-4-yl] carbamate]	362	0.026 (≈ 0.078 µM)	9.4 (≈ 28.2 µM)	
CCCN(C)C=Nc1nsnc1-c1c(Cl)cccc1Cl [Compound 128, N^1-methyl-N^1-propyl-N^2-[3-(2,6-dichlorophenyl)-1,2,5-thiadiazol-4-yl]formamidine]	48		9.2 (≈ 27.9 µM)	0.19 (≈ 0.577 µM)
Clc1cccc(Cl)c1-c1nsnc1OCCBr [Compound 160, 3-(2-bromoethoxy)-4-(2,6-dichlorophenyl)-1,2,5-thiadiazole]	15		4.8 (≈ 13.6 µM)	0.32 (≈ 0.904 µM)
CN(C)C(=O)Oc1nsnc1-c1cc(N)ccc1Cl [Compound 21, N,N-Dimethyl [3-(5-amino-2-chlorophenyl)-1,2,5-thiadiazol-4-yl] CARBAMATE]	240	0.15 (≈ 0.502 µM)	36 (≈ 121 µM)	
CCCN(C)C(=O)Cc1nsnc1-c1ccccc1Cl [Compound 202, N-methyl-N-propyl [3-(2-chlorophenyl)-1,2,5-thiadiazol-4-yl]acetamide]	7		18 (≈ 58.1 µM)	2.5 (≈ 8.07 µM)
CN(CCC#N)C(=O)Oc1nsnc1-c1c(Cl)cccc1Cl [Compound 219, N-(2-cyanoethyl)-N-methyl [3-(2,6-dichlorophenyli-1,2,5-thiadiazol-4-yl] carbamate]	2556	0.018 (≈ 0.0504 µM)	46 (≈ 129 µM)	
CCCN(C)C(=O)Oc1nsnc1-c1c(Cl)ccc(C(=O)OC)c1Cl [Compound 91, N-Methyl-N-propyl [3-(2,6-dichloro-3-methoxycarbonylphenyl)-1,2,5-thiadiazol-4-yl] carbamate]	144	0.063 (≈ 0.156 µM)	9.1 (≈ 22.5 µM)	
